From US20250257071A9, “TRICYCLIC COMPOUND, METHOD FOR PREPARING SAME, AND USE THEREOF” (Sichuan Kelun-Biotech Biopharmaceutical Co., Ltd., priority 2021, published 2025)

Biological target: human TLR7 (Homo sapiens (Human), UniProt Q9NYK1)
Assay: Agonistic activity of compounds on HEK-Blue hTLR7 cells (QUANTI-Blue reporter, OD620)
Type: cell-based
Settings: for Emax (OD620): OD620 at maximum activation effect
Method: • 1. HEK-Blue hTLR7 cells (Invivogen) were cultured in DMEM medium (Hyclone) containing 10% FBS heat-inactivated fetal bovine serum (Corning). On the day of detection, the cell state was observed under a microscope, the cells were collected and resuspended, and the cell concentration was adjusted after counting, 50 μL per well, the total amount of cells was 2×10^4, and the cells were inoculated in a 96-well plate. • 2. After the cells adhered to the wall overnight, 50 μL of the test compound at different concentrations was added into the well plate, so that the final concentrations were 100 μM, 33.3 μM, 11.11 μM, 3.70 μM, 1.23 μM, 0.41 μM, 0.14 μM, 0.05 μM, 0 μM, and the final concentration of DMSO was 1%. The compound was incubated with the cells in a 37° C., 5% CO2 incubator for 20 h. • 3. After the incubation, observation under microscope was performed to determine the maximum signal well, the states of the cells with the highest and lowest concentrations of the compound, and whether the compound will crystalize at high concentration. 10 μL of cell culture supermatant was taken and transferred to a new 96-well transparent plate, 90 μL of QUANTI-Blue (Invivogen) detection reagent was added to each well, and incubated at 37° C. for 3 h, and OD620 was read with a multifunctional microplate reader (BMG LABTECH). • 4. EC50 was calculated by fitting with Graphpad Prism software log(agonist) vs. response—Variable slope, and Emax was the (D620 at which the activation effect of the test compound reached the maximum.

Sequence of human TLR7 (Q9NYK1 27-1049): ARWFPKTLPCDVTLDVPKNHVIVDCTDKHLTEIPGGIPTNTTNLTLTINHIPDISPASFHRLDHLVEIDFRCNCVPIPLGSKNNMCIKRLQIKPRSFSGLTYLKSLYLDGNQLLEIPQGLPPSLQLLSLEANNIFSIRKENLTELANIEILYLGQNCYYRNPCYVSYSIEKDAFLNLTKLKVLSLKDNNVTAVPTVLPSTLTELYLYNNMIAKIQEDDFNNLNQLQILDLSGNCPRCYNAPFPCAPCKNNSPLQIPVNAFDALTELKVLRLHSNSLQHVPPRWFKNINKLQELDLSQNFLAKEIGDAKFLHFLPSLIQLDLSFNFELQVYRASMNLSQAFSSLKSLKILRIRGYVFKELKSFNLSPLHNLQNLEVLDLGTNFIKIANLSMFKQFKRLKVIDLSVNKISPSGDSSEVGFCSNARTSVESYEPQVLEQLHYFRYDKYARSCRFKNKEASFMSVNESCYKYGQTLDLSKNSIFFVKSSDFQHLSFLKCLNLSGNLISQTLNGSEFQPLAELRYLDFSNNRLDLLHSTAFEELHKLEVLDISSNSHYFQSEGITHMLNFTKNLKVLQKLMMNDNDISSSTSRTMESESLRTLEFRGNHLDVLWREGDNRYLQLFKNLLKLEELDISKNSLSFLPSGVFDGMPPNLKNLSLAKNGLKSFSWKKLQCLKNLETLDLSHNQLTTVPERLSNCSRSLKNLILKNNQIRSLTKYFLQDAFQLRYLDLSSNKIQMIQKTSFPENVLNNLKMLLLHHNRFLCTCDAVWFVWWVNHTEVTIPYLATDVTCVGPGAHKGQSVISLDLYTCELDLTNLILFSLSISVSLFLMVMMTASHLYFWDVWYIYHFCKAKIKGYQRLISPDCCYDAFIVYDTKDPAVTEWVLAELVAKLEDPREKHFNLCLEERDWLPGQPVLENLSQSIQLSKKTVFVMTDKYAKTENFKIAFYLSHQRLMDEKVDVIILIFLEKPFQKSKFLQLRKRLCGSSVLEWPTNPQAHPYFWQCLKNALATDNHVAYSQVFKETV

| Structure (SMILES) | activation effect on human TLR7 (in words) | Emax (OD620) |
| --- | --- | --- |
| CCCCc1nc2c(N)nc3cc(C)sc3c2n1CC1CCN(CCOCCOCCN)CC1 [Compound 15, 1-((1-(2-(2-(2-aminoethoxy)ethoxy)ethyl)piperidin-4-yl)methyl)-2-butyl-7-methyl-1H-imidazo[4,5-d]thieno[3,2-b]pyridine-4-amine] | strong activation effect | 2.40 OD620 |
| CCCCc1nc2c(N)nc3cc(C)sc3c2n1CC1CCN(C)CC1 [Compound 28, 2-butyl-7-methyl-1-((1-methylpiperidin-4-yl)methyl)-1H-imidazo[4,5-d]thieno[3,2-b]pyridine-4-amine] | strong activation effect | 1.39 OD620 |
| CCCCc1nc2c(N)nc3cc(C4CCN(C)CC4)sc3c2n1CC1CCN(CCOC)CC1 [Compound 42, 2-butyl-1-{[1-(2-methoxyethyl)hexahydropyridin-4-yl]methyl}-7-(1-methylhexahydropyridin-4-yl)thieno[3,2-b]imidazo[4,5-d]pyridine-4-amine] | strong activation effect | 0.65 OD620 |
| COCCc1nc2c(N)nc3ccsc3c2n1CC1CCNCC1 [Compound 55, 1-(hexahydropyridin-4-ylmethyl)-2-(2-methoxyethyl) thieno[3,2-b]imidazo[4,5-d]pyridine-4-amine] | strong activation effect | 1.44 OD620 |
| CCCCc1nc2c(N)nc3cc(C)sc3c2n1CC1CCOCC1 [Compound 26, 2-butyl-7-methyl-1-((tetrahydro-2H-pyran-4-yl)methyl)-1H-imidazo[4,5-d]thieno[3,2-b]pyridine-4-amine] | strong activation effect | 1.78 OD620 |
| CCCCc1nc2c(N)nc3cc(C4CCN(C)CC4)sc3c2n1CC1CCOCC1 [Compound 34, 2-butyl-7-(1-methylpiperidin-4-yl)-1-((tetrahydro-2H-pyran-4-yl)methyl)-1H-imidazo[4,5-d]thieno[3,2-b]pyridine-4-amine] | strong activation effect | 1.21 OD620 |
| COCCc1nc2c(N)nc3ccsc3c2n1CCCCN [Compound 4, 1-(4-aminobutyl)-2-(2-methoxyethyl)-1H-imidazo[4,5-d]thieno[3,2-b]pyridine-4-amine] | strong activation effect | 1.74 OD620 |
| CCCCc1nc2c(N)nc3cc(C4=CCN(C)CC4)sc3c2[nH]1 [Compound 8, 2-butyl-7-(1-methyl-1,2,3,6-tetrahydropyridin-4-yl)-1H-imidazo[4,5-d]thieno[3,2-b]pyridine-4-amine] | strong activation effect | 0.56 OD620 |
| CCCCc1nc2c(N)nc3cc(C4CCN(C)CC4)sc3c2n1CC1CCN(C)CC1 [Compound 38, 2-butyl-7-(1-methylpiperidin-4-yl)-1-((1-methylpiperidin-4-yl)methyl)-1H-imidazo[4,5-d]thieno[3,2-b]pyridine-4-amine] | strong activation effect | 0.49 OD620 |
| CCCCc1nc2c(N)nc3cc(C4CCNCC4)sc3c2n1CC1CCN(CCOC)CC1 [Compound 41, 2-butyl-7-(hexahydropyridin-4-yl)-1-{[1-(2-methoxyethyl)hexahydropyridin-4-yl]methyl}thieno[3,2-b]imidazo[4,5-d]pyridine-4-amine] | strong activation effect | 0.84 OD620 |
| CCCCc1nc2c(N)nc3cc(C4CCOCC4)sc3c2n1CC1CCN(C)CC1 [Compound 40, 2-butyl-1-((1-methylpiperidin-4-yl)methyl)-7-(tetrahydro-2H-pyran-4-yl)-1H-imidazo[4,5-d]thieno[3,2-b]pyridine-4-amine] | strong activation effect | 1.83 OD620 |
| CCCCc1nc2c(N)nc3cc(C4CCN(C)CC4)sc3c2n1C [Compound 32, 2-butyl-1-methyl-7-(1-methylpiperidin-4-yl)-1H-imidazo[4,5-d]thieno[3,2-b]pyridine-4-amine] | strong activation effect | 0.91 OD620 |
| CCCCc1nc2c(N)nc3cc(C)sc3c2n1CC1CCN(CCOCCOCCOCCOCCOCCOCCOC)CC1 [Compound 16, 1-((1-(2,5,8,11,14,17,20-heptaoxadocosan-22-yl)piperidin-4-yl)methyl)-2-butyl-7-methyl-1H-imidazo[4,5-d]thieno[3,2-b]pyridine-4-amine] | strong activation effect | 2.18 OD620 |
| CCCCc1nc2c(N)nc3cc(C)sc3c2n1CC1CCN(C(=O)CCOCCOCCN)CC1 [Compound 17, 1-(4-((4-amino-2-butyl-7-methyl-1H-imidazo[4,5-d]thieno[3,2-b]pyridin-1-yl)methyl)piperidin-1-yl)-3-(2-(2-aminoethoxy)ethoxy)propan-1-one] | strong activation effect | 2.23 OD620 |
| CCCCc1nc2c(N)nc3ccsc3c2n1CC1CCNCC1 [Compound 25, 2-butyl-1-(piperidin-4-ylmethyl)-1H-imidazo[4,5-d]thieno[3,2-b]pyridine-4-amine] | strong activation effect | 2.08 OD620 |
| CCOCc1nc2c(N)nc3ccsc3c2n1CCCCN [Compound 5, 1-(4-aminobutyl)-2-(2-ethoxymethyl)-1H-imidazo[4,5-d]thieno[3,2-b]pyridine-4-amine] | strong activation effect | 1.46 OD620 |
| COCCc1nc2c(N)nc3ccsc3c2n1CC1CCN(C)CC1 [Compound 56, 2-(2-methoxyethyl)-1-[(1-methylhexahydropyridin-4-yl)methyl]thieno[3,2-b]imidazo[4,5-d]pyridine-4-amine] | strong activation effect | 1.41 OD620 |
